Literature values as cited in patent US20170140533A1, “SYSTEM AND METHOD FOR AUTOMATED DETECTION AND MONITORING OF DYSPLASIA AND ADMINISTRATION OF IMMUNOTHERAPY AND CHEMOTHERAPY” (VISIONGATE, INC., priority 2015, published 2017).

Tests used:
[1] = tested on: immune response in SSc patients
T cells = conditions: in vitro

CC#CCC(C)[C@H](O)/C=C/[C@@H]1[C@H]2C/C(=C/CCCC(=O)O)C[C@H]2C[C@H]1O (stereo partly drawn) [Iloprost]
IFN gamma production ([1]; SSc patients): No effect
T regulatory cells number ([1]; SSc patients): reduces
serum IL-2 ([1]; SSc patients, serum): increases
T regulatory cells activity ([1]; after immune stimulation): increases
persistence of serum IL-2 increase after the last infusion ([1]; after the last infusion): 28 days
RANKL ([1]; in vivo): increased
T cell and TNF alpha production ([1]; in vivo, SSc patients): reduces
RANKL (T cells): increased
T cell and TNF alpha production (T cells): reduces
